This is an account of results in patent publication US20080300288A1, “Alkenyldiarylmethanes, Fused Analogs And Syntheses Thereof” (PURDUE RESEARCH FOUNDATION, priority 2005, published 2008).

Broadly, the EC50 is the concentration needed to bring the measured effect to its halfway point. As a reminder, the IC50 is the concentration that gives 50% inhibition. The term CC50 denotes the concentration that lowers cell viability or growth by half. High values mean lower toxicity to the cells, low ones greater toxicity to the cells.

For one data set, the system named is HIV-1 strain IIIB. Briefly: MTT assay, HIV-1 strain IIIB in MT-4 cells. The data set is classed as cell-based. As to conditions: Human immunodeficiency virus 1, MT4; HIV-1IIIB in MT-4 cells; read-out: EC50 HIV-1IIIB (inhibition of cytopathicity). (Tetrazolium assays rely on reduction of a dye to a coloured formazan, in cell work by metabolically active cells.)
The subject of another data set is HIV-1RF. Briefly: MTS cytoprotection assay, HIV-1RF infection in CEM-SS cells. The data set is classed as cell-based. As to conditions: Human immunodeficiency virus 1; HIV-1RF in CEM-SS cells; read-out: EC50 HIV-1RF (inhibition of cytopathicity). As for the experimental part: (§1) In Vitro Antiviral Assays. Evaluation of the antiviral activity of compounds against HIV-1RF infection in CEM-SS cells was performed using the MTS cytoprotection assay as previously described. See, Rice, W. G.; Bader, J. P. Discovery and in Vitro Development of AIDS Antiviral Drugs as Biopharmaceuticals. Adv. Pharmacol. (San Diego) 1995, 6, 389-438, the disclosure of which is incorporated herein by reference. […] See, Pauwels, R.; Balzarini, J.; Baba, M.; Snoeck, R.; Schols, D.; Herdewijn, P.; Desmyter, J.; De Clercq, E. Rapid and Automated Tetrazolium-based Colorimetric Assay for Detection of Anti-HIV Compounds. J. Virol. Methods 1988, 20, 309-321, the disclosure of which is incorporated herein by reference.

Data set [1] is described as follows: In vitro hydrolytic stability study in rat plasma. As to conditions: for Rat Plasma tp1/2 (min ± SD): rat plasma in vitro, half-life; for hydrolysis in rat plasma: 37° C. The data set is classed as in vitro ADME. The procedure: NMR spectra were obtained at 300 MHz (^1H) and 75 MHz (^13C) in CDCl3 using CHCl3 as internal standard. Flash chromatography was performed with 230-400 mesh silica gel. […] Melting points are uncorrected. Unless otherwise stated, chemicals and solvents were of reagent grade and used as obtained from commercial sources without further purification. Tetrahydrofuran (THF) was freshly distilled from sodium/benzophenone ketyl radical prior to use. Dichloromethane was freshly distilled from calcium hydride prior to use. Lyophilized rat plasma (lot 052K7609) was obtained from Sigma Chemical Co., St. Louis, Mo. All yields given refer to isolated yields.
In vitro Hydrolytic Stability Study in Rat Plasma. […] See, Silvestri, M. A.; Nagarajan, M.; De Clercq, E.; Pannecouque, C.; Cushman, M. Design, Synthesis, Anti-HIV Activities, and Metabolic Stabilities of Alkenyldiarylmethane (ADAM) Non-nucleoside Reverse Transcriptase Inhibitors. J. Med. Chem. 2004, 47, 3149-3162, the disclosure of which is incorporated herein by reference.

Data set [2] addresses T1, recombinant HIV-1 RT enzyme (p66/51 dimer) (Human immunodeficiency virus type 1 group M subtype B, UniProt P04585).
T1 construct: recombinant HIV-1 RT enzyme (p66/51 dimer)
Briefly: RT inhibition assay, incorporation of [32P]GTP into poly(rC)/oligo(dG). The data set is classed as biochemical. As for the experimental part: RT Inhibition Assay. Analysis of the effects of the compounds on recombinant HIV-1 RT enzyme (p66/51 dimer) was performed as previously described. See, Buckheit, R. W. J.; Fliakas-Boltz, V.; Decker, W. D.; Robertson, J. L.; Stup, T. L.; Pyle, C. […] Antiviral Res. 1995, 26, 117-132, the disclosure of which is incorporated herein by reference. Briefly, inhibition of purified recombinant reverse transcriptase enzyme was measured by the incorporation of [^32P]GTP into poly(rC)/oligo(dG) (rCdG) homopolymer template primers.

The subject of the next data set is HIV-2 strain (ROD). Briefly: MTT assay, HIV-2 strain (ROD) in MT-4 cells. As to conditions: Human immunodeficiency virus 2, MT4; HIV-2ROD in MT-4 cells; read-out: EC50 HIV-2-ROD (inhibition of cytopathicity). The data set is classed as cell-based.
Data set [3] is described as follows: Cytotoxicity in mock-infected MT-4 cells. The data set is classed as cell-based. As to conditions: human, uninfected (mock-infected) MT-4 cells.
The nature of data set [4]: Cytotoxicity in mock-infected CEM-SS cells. The data set is classed as cell-based. As to conditions: human, uninfected (mock-infected) CEM-SS cells. As for the experimental part:
as §1, with “[…].;” for “D.; Herdewijn, P.; Desmyter, J.;”, “[…].” for “Clercq, E.”

As for `COC(=O)c1cc(/C(=C/CCN2CCOC2=O)c2ccc(OC)c(OC)c2)cc(C)c1OC` [Compound 4, (Z)-5-[1-(3,4-Dimethoxyphenyl)-4-(2-oxo-oxazolidin-3-yl)-but-1-enyl]-2-methoxy-3-methyl-benzoic Acid Methyl Ester], the EC50 in the data set on HIV-1 strain IIIB is over 33.8 µM; with HIV-1RF it was over 100 µM; with HIV-2 strain (ROD), over 35.4 µM. For the same molecule, in data set [1], the “Rat Plasma tp1/2 (min ± SD)” value is on record as 0.79 ± 0.10 min. Moreover, the 50% inhibitory concentration (IC50) in data set [2] came to 0.9 µM. Besides, the values for the CC50 in data set [3] and in data set [4] were 83.1 µM and 0.6 µM, respectively.

Consider `COC(=O)CCC/C=C(\c1cc(F)cc(C(F)(F)F)c1)c1cc(C)c(OC)c(C(=O)OC)c1` [Compound 12, (Z)-5-[1-(3-Fluoro-5-trifluoromethylphenyl)-5-methoxycarbonyl-pent-1-enyl]-2-methoxy-3-methylbenzoic Acid Methyl Ester], for which the EC50 with HIV-1 strain IIIB is over 5.51 µM; with HIV-1RF, over 5 µM; in the data set with HIV-2 strain (ROD) it was over 5.89 µM. The IC50 in data set [2] was over 100 µM. The CC50 in data set [3] is 5.7 µM; in data set [4], over 5 µM.

In the case of `COC(=O)CCC/C=C(\c1cc(F)cc(C(F)(F)F)c1)c1cc(C)c2on(C)c(=O)c2c1` [Compound 22, (Z)-6-(2,3-Dihydro-2,7-dimethyl-3-oxo-benzo[d]isoxazol-5-yl)-6-(3-fluoro-5-trifluoromethylphenyl)-hex-5-enoic Acid Methyl Ester], the EC50 in the data set with HIV-1 strain IIIB is over 35.7 µM; with HIV-1RF, over 100 µM; in the data set with HIV-2 strain (ROD), over 43.2 µM. For the same molecule, in data set [2], the IC50 was over 100 µM. The CC50 in data set [3] is 39.8 µM; in data set [4], 16.8 µM.

Turning to `COC(=O)CCC/C=C(\c1cc(F)cc(C(F)(F)F)c1)c1cc(C)c2onc(OC)c2c1` [Compound 19, (Z)-6-(3-Fluoro-5-trifluoromethylphenyl)-6-(3-methoxy-7-methylbenzo[d]isoxazol-5-yl)-hex-5-enoic Acid Methyl Ester], in data set [2], the half-inhibitory concentration (IC50) is 0.9 µM.

Regarding `COC(=O)CCC/C=C(\c1cccc(C#N)c1)c1cc(C)c2onc(OC)c2c1` [Compound 20, (E)-6-(3-Cyanophenyl)-6-(3-methoxy-7-methylbenzo[d]isoxazol-5-yl)-hex-5-enoic Acid Methyl Ester], the EC50 in the data set with HIV-1 strain IIIB was over 2.05 µM; in the data set on HIV-1RF, over 100 µM; in the data set on HIV-2 strain (ROD) it was over 5.63 µM. In data set [1], the “Rat Plasma tp1/2 (min ± SD)” value was determined as 1.16 ± 0.08 min. Moreover, the IC50 in data set [2] was 5.7 µM. Further, the values for the CC50 in data set [3] and in data set [4] were 4.69 µM and 0.8 µM, respectively.

Turning to `COC(=O)CCC/C=C(\c1cc(F)cc(C(F)(F)F)c1)c1cc(Cl)c(OC)c(C(=O)OC)c1` [Compound 13, (E)-3-Chloro-5-[1-(3-fluoro-5-trifluoromethylphenyl)-5-methoxycarbonyl-pent-1-enyl]-2-methoxy-benzoic Acid Methyl Ester], the EC50 in the data set with HIV-1RF is over 100 µM. In data set [2], the IC50 is over 100 µM. Further, half-maximal cytotoxicity in data set [4] (CC50) was put at 16.1 µM.

In the case of `COc1noc2c(C)cc(/C(=C\CCN3CCOC3=O)c3cc(C)c4oc(=O)n(C)c4c3)cc12` [Compound 68, (E)-5-[1-(3-Methoxy-7-methylbenzo[d]isoxazol-5-yl)-4-(2-oxoxazolidin-3-yl)-but-1-enyl]-3,7-dimethyl-3H-benzoxazol-2-one], in data set [1] (after 1 day), the “hydrolysis in rat plasma” value is “had not been hydrolyzed”. The IC50 in data set [2] is 3.6 µM.

Turning to `COC(=O)CCC/C=C(/c1cc(C)c2onc(OC)c2c1)c1cc(C)c2oc(=O)n(C)c2c1` [Compound 67, (Z)-6-(3,7-Dimethyl-2-oxo-2,3-dihydro-benzoxazol-5-yl)-6-(3-methoxy-7-methyl-benzo[d]isoxazol-5-yl)-hex-5-enoic Acid Methyl Ester], in data set [2], the IC50 worked out at 0.25 µM.

For the molecule `COC(=O)CCC/C=C(\c1cccc(C#N)c1)c1cc(Cl)c(OC)c(C(=O)OC)c1` [Compound 17, (E)-3-Chloro-5-[1-(3-cyanophenyl)-5-methoxycarbonyl-pent-1-enyl]-2-methoxybenzoic Acid Methyl Ester], the figures for the concentration for a half-maximal effect (EC50) with HIV-1 strain IIIB, with HIV-1RF and in the data set with HIV-2 strain (ROD) were 8.55 µM, 7.1 µM and over 223 µM, respectively. In data set [1], the “Rat Plasma tp1/2 (min ± SD)” value was found to be 0.44 ± 0.05 min. Besides, in data set [2], the IC50 was 0.75 µM. For the same molecule, the results for the half-maximal cytotoxic concentration (CC50) in data set [3] and in data set [4] were 213 µM and 20.2 µM, respectively.

Consider `COC(=O)CCC/C=C(\c1cc(C)c(OC)c(C(=O)OC)c1)c1cc(Cl)ccc1OC` [Compound 14, (E)-5-[1-(5-Chloro-2-methoxyphenyl)-5-methoxycarbonyl-pent-1-enyl]-2-methoxy-3-methylbenzoic Acid Methyl Ester], for which the EC50 in the data set with HIV-1RF is over 100 µM. The “Rat Plasma tp1/2 (min ± SD)” value in data set [1] is 0.49 ± 0.02 min. Further, in data set [2], the IC50 is over 100 µM. The molecule also registered a CC50 in data set [4] of 8.3 µM.

Consider `COC(=O)CCC/C=C(/c1cc(C)c2on(C)c(=O)c2c1)c1cc(Cl)ccc1OC` [Compound 21, (Z)-6-(5-Chloro-2-methoxyphenyl)-6-(2,3-dihydro-2,7-dimethyl-3-oxo-benzo[d]isoxazol-5-yl)-hex-5-enoic Acid Methyl Ester], for which, in the data set with HIV-1RF, the EC50 is over 100 µM. Further, in data set [1], the “Rat Plasma tp1/2 (min ± SD)” value was found to be 0.48 ± 0.06 min. Also, in data set [2], the IC50 worked out at 8.2 µM. Moreover, the CC50 in data set [4] worked out at 13 µM.

In the case of `COc1ccc(/C(=C\CCN2CCOC2=O)c2cc(F)cc(C(F)(F)F)c2)cc1OC` [Compound 8, (E)-3-[4-(3-Fluoro-5-trifluoromethylphenyl)-4-(3,4-dimethoxyphenyl)-but-3-enyl]-oxazolidin-2-one], the EC50 with HIV-1RF was over 100 µM. For the same molecule, the “hydrolysis in rat plasma” value in data set [1] (after three days) was “had not been hydrolyzed”. Moreover, the IC50 in data set [2] stood at 97.8 µM. In data set [4], this molecule yielded a CC50 of 14.5 µM.

As for `COC(=O)c1cc(/C(=C\CCN2CCOC2=O)c2cc(F)cc(C(F)(F)F)c2)cc(C)c1OC` [Compound 7, (E)-5-[1-(3-Fluoro-5-trifluoromethylphenyl)-4-(2-oxo-oxazolidin-3-yl)-but-1-enyl]-2-methoxy-3-methylbenzoic Acid Methyl Ester], in the data set with HIV-1RF, the EC50 is 8.3 µM. Further, the IC50 in data set [2] is 15.7 µM. The CC50 in data set [4] amounted to 15 µM.

In the case of `COC(=O)CCC/C=C(/c1cc(Cl)c(OC)c(C(=O)OC)c1)c1cc(Cl)ccc1OC` [Compound 10, (Z)-3-Chloro-5-[1-(5-chloro-2-methoxyphenyl)-5-methoxycarbonyl-pent-1-enyl]-2-methoxybenzoic Acid Methyl Ester], the EC50 in the data set with HIV-1RF is over 100 µM. The “Rat Plasma tp1/2 (min ± SD)” value in data set [1] stood at 0.77 ± 0.08 min. Further, the IC50 in data set [2] was over 100 µM. Further, it took 15.5 µM to reach half-maximal cytotoxicity in data set [4] (CC50).

Take `COC(=O)CCC/C=C(/c1cc(C)c(OC)c(C(=O)OC)c1)c1cc(Cl)ccc1OC` [Compound 11, (Z)-5-[1-(5-Chloro-2-methoxyphenyl)-5-methoxycarbonyl-pent-1-enyl]-2-methoxy-3-methylbenzoic Acid Methyl Ester]: the EC50 in the data set on HIV-1RF is over 100 µM. The “Rat Plasma tp1/2 (min ± SD)” value in data set [1] is given as 0.98 ± 0.02 min. In data set [2], the IC50 is over 100 µM. Moreover, the midpoint of cytotoxicity in data set [4], the CC50, lay at 8 µM.

For `COc1ccc(/C(=C\CCN2CCOC2=O)c2cc(F)ccc2C(F)(F)F)cc1OC` [Compound 9, (E)-3-[4-(5-Fluoro-2-trifluoromethylphenyl)-4-(3,4-dimethoxyphenyl)-but-3-enyl]-oxazolidin-2-one], the EC50 with HIV-1RF is over 100 µM. In data set [1] (after three days), the “hydrolysis in rat plasma” value is reported as “had not been hydrolyzed”. Besides, the IC50 in data set [2] is over 100 µM. Besides, the cytotoxic concentration (CC50) in data set [4] was determined as 26.7 µM.
